Key:
γ-secretase [1] = target: T1, γ-secretase (Homo sapiens (Human), UniProt P49768); test: HTRF γ-secretase assay with Sb4 substrate; assay type: biochemical
Description: We set out to transfer the assay conditions obtained with the ECL method to an HTRF detection based format (FIG. 10b). The HTRF detection mixture consisted of mouse G2-10 antibody for recognition of the C-terminal epitope of the cleaved product, a Europium-labeled anti-mouse antibody (commonly, an antibody is conjugated with a cryptate ligand that forms a three dimensional coordination cage structure surrounding a lanthanide such as Eu^3+), along with Streptavidin conjugated to a trimeric form of the fluorescent protein allophycocyanin referred to as XL665. Cleavage of Sb4 substrate allows G2-10 mouse antibody to bind to the Aβ40-processed site on the cleaved substrate. The Steptavidin-XL665 conjugate binds directly with the biotin moiety on the N-terminal end of the Sb4 derived product. The anti-mouse Europium antibody targets to the G2-10 antibody, bringing all of these entities into close proximity. The Europium and XL665 reagents are a compatible pair of donor-acceptor fluorophores, and excitation of Europium at 337 nm results in fluorescence energy resonance transfer (FRET) to XL665 which fluoresces at 665 nm (FIG. 10b).
Human γ-secretase was prepared from HeLa cell membranes as described previously (Li et al., 2000). Briefly, HeLa cell pellet was resuspended in 1×MES buffer (50 mM MES, pH 6.0, 150 mM KCl, 5 mM CaCl2, 5 mM MgCl2) and treated with ‘complete’ protease inhibitor (Boehringer Mannheim). The resuspended pellet was mechanically homogenized by passing the cells through the French Press (Spectronic Instruments), and subsequently spun down at 800 g to remove cell debris and nuclei. Next, the supernatants were spun at 100,000 g in order to pellet the membranes. The pelleted membranes were resuspended in 1×MES buffer to approximately 12 mg/ml. This entire procedure was performed at 4° C. HeLa membranes were solubilized using 1% CHAPSO detergent in 1×MES buffer with protease inhibitors. After incubating for 1 hr at 4° C., the membrane was spun down at 100,000 g and the supernatants were collected and stored at −70° C. The collected fraction is defined as solubilized γ-secretase.
HTRF conditions were initially optimized in a 384-well format using a final volume of 20 μl. The high control for this assay was defined as the observed γ-secretase activity in the presence of 1% DMSO (v/v) and the low control as the activity observed when including 100 nM final concentration of Compound E (v/v). First, we determined a tolerable DMSO concentration that would not interfere with γ-secretase activity. Even with 3% DMSO (v/v) present in the assay mixture, there was virtually no effect on the γ-secretase activity (FIG. 11a), which was critical as delivery of library screening compounds required a final concentration of 2% DMSO (v/v) in the γ-secretase reaction. Next, we titrated the HTRF mixture components in an effort to minimize reagent costs for use in high throughput screening. […] Additionally, we varied Europium conjugated anti-mouse antibody and determined that 1 nM of this reagent in the HTRF mixture was sufficient for our assay conditions even though the signal continued to increase with higher concentrations of the anti-mouse antibody (FIG. 11c).
We have further miniaturized the HTRF assay from the established 384-well format to a 1536-well platform enabling more efficient screening of large chemical libraries. […] Based on these optimization experiments, we set our final assay conditions at 0.3 nM G2-10, 1 nM anti-mouse antibody, 15 nM Streptavidin-XL665, and proceeded with the assay at 10 μl final volume (5 μl γ-secretase mix+5 μl HTRF mix) in the 1536-well format for screening.
The pilot assay was performed in duplicate on two separate days to account for any day-to-day variability. […]

γ-secretase [2] = target: T1, γ-secretase; test: Extended exo-cell γ-secretase assay, HeLa cells; assay type: cell-based
Procedure: The potency of two structurally different GSIs was assayed in four unique γ-secretase activity assays. IC50 values were determined from the dose response curves using a non-linear regression analysis in the Prism software. An in vitro assay was based on the one previously reported by Li et al. (2000), except we utilized Sb4 substrate that eliminated the need for biotinylated antibody. The cell-based activity assay used N2A mouse neuroblastoma cells stably over-expressing APP and a biotinylated 4G8 antibody that binds the C-terminus of the amyloid beta peptide. The exo-cell assay incubated HeLa cells simultaneously with GSI, Sb4 substrate as well as 0.25% CHAPSO detergent prior to detecting substrate cleavage. Finally, the extended exo-cell assay first incubated HeLa cells with GSI for 24 hrs. Subsequently, the cells were washed 1× in PBS and then incubated with Sb4 substrate and CHAPSO detergent. The assay was then carried out exactly as described for the original exo-cell method. All assays incorporate ruthenylated G2-10* antibody to detect 40-site cleavage of APP or recombinant Sb4 substrate and quantitated activity by measuring ECL. The latter assays were performed as previously described (Li et al., 2000). In the in vitro assay, recombinant Sb4 substrate was incubated for 2.5 hours at 37° C. in pH 7.0 PIPES buffer in the presence of 0.25% CHAPSO detergent and solubilized γ-secretase at a final concentration of 40 ng/ul. The detection of cleaved substrate was determined using ruthenylated G2-10* antibody. Since the Sb4 substrate is biotinylated additional 6E10 biotinylated antibody used in earlier assays is not required. […]
The exo-cell assay was adapted to monitor real-time γ-secretase activity and inhibition over extended times of pretreatment regimens. […] This modified, extended treatment exo-cell assay is capable of quantifying remaining γ-secretase activity following drug treatment on virtually any cell type. The IC50 values for Compound E and GSI-34 were calculated using the extended exo-cell assay (Table 3 and FIG. 15d). […]

## CC(NC(=O)Cc1cc(F)cc(F)c1)C(=O)NC1N=C(c2ccccc2)c2ccccc2N(C)C1=O (stereo not drawn) [Compound E]
γ-secretase [1]
  IC50: 1.1 nM
γ-secretase [2]; 24 hrs pretreatment, read-out: Extended Exo-Cell (nM), IC50
  IC50: 2.8 nM
γ-secretase [2]; Extended Exo-Cell (nM), IC50, 24 hrs pretreatment
  IC50: 2.83 nM
